Assay results: patent publication US7902252B2, “Inhibitors of D-amino acid oxidase” (Sepracor, Inc., priority 2007, dated 2011)

Molecular target: Human DAAO (Homo sapiens, UniProt P14920)
Assay: D-Amino Acid Oxidase enzyme assay (D-serine, horseradish peroxidase/Amplex Red coupled fluorescence)
Type: biochemical
Conditions: D-serine 5 mM, pH 7.4
Method: DAAO enzyme activity was measured using the substrate D-serine at its Michaelis-Menton Km of 5 mM. The rate of oxidation is measured as a rate of production of hydrogen peroxide, which was detected using the enzyme horseradish peroxidase (Sigma cat. No. P-8375). This coupled reaction uses the enzyme substrate Amplex Red (Molecular Probes), which is converted to the fluorescent reaction product, resorufin (excitation 530-560 nm; emission ˜590 nm). Although DAAO has a higher pH optimum, all reagents were prepared in 50 mM sodium phosphate buffer at pH 7.4 and inhibition curves were generated at this pH.
The final concentrations of components in 200 μl total volume per well (black clear-bottom 96-well plate, Costar) were:
(a) Horseradish peroxidase: 4 Units per mL
(d) Amplex Red reagent: 50 uM
The reactions were initiated by addition of DAAO enzyme and the fluorescence was monitored. H2O2 was added at 16 uM final concentration to a control well on each plate to test for compound interference with a coupled enzyme. Inhibition curves were generated in the presence of varying concentrations of the inhibitor and IC50 values were calculated for each inhibitor.

Human DAAO, sequence (P14920 whole entry): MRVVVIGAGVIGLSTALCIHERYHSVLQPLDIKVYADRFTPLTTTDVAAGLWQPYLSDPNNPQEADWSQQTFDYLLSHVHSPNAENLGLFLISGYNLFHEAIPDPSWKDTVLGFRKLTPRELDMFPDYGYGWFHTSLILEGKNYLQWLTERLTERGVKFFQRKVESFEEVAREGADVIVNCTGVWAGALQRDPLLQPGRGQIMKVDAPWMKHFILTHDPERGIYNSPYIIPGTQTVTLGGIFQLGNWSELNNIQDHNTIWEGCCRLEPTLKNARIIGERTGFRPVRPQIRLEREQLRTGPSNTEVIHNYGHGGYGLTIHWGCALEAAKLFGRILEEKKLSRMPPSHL

| Compound | IC50 [µM] |
| --- | --- |
| O=C(O)c1cc2c([nH]1)CCC2c1cccc(Br)c1 (centres unmarked) [Compound 103, 4-(3-bromophenyl)-1,4,5,6-tetrahydrocyclopenta[b]pyrrole-2-carboxylic acid] | ≤ 0.1 |
| O=C(O)c1cc2c([nH]1)C(CCc1ccccc1)CC2 (single isomer, unassigned) [Compound 28, 6-phenethyl-1,4,5,6-tetrahydrocyclopenta[b]pyrrole-2-carboxylic acid] | ≤ 1 |
| O=C(O)c1cc2c([nH]1)C(CCCc1ccccc1)CC2 (single isomer, unassigned) [Compound 135, 6-(3-phenylpropyl)-1,4,5,6-tetrahydrocyclopenta[b]pyrrole-2-carboxylic acid] | ≤ 100 |
| CCCC1CCc2[nH]c(C(=O)O)cc21 (racemic) [Compound 7, 4-propyl-1,4,5,6-tetrahydrocyclopenta[b]pyrrole-2-carboxylic acid] | ≤ 0.1 |
| O=C(O)c1cc2c([nH]1)CCC2Cc1cccc(-c2cccnc2)c1 (centres unmarked) [Compound 83, 4-(3-(pyridin-3-yl)benzyl)-1,4,5,6-tetrahydrocyclopenta[b]pyrrole-2-carboxylic acid] | ≤ 1 |
| O=C(O)c1cc2c([nH]1)C(c1cccc(Cl)c1)CC2 (centres unmarked) [Compound 114, 6-(3-chlorophenyl)-1,4,5,6-tetrahydrocyclopenta[b]pyrrole-2-carboxylic acid] | ≤ 1 |
| O=C(O)c1cc2c([nH]1)CCC2Cc1ccc(F)cc1F (single isomer, unassigned) [Compound 46, 4-(2,4-difluorobenzyl)-1,4,5,6-tetrahydrocyclopenta[b]pyrrole-2-carboxylic acid] | ≤ 100 |
| O=C(O)c1[nH]c2c(c1Br)C(CCc1ccccc1)CC2 (centres unmarked) [Compound 147, 3-bromo-4-phenethyl-1,4,5,6-tetrahydrocyclopenta[b]pyrrole-2-carboxylic acid] | ≤ 1 |
| O=C(O)c1cc2c([nH]1)CC(Cc1ccccc1)C2 (centres unmarked) [Compound 23, 5-benzyl-1,4,5,6-tetrahydrocyclopenta[b]pyrrole-2-carboxylic acid] | ≤ 100 |
| COc1cccc(CC2CCc3cc(C(=O)O)[nH]c32)c1 (racemic) [Compound 129, 6-(3-methoxybenzyl)-1,4,5,6-tetrahydrocyclopenta[b]pyrrole-2-carboxylic acid] | ≤ 0.1 |
| O=C(O)c1cc2c([nH]1)CCC2CC1CCCCC1 (centres unmarked) [Compound 12, 4-(cyclohexylmethyl)-1,4,5,6-tetrahydrocyclopenta[b]pyrrole-2-carboxylic acid] | ≤ 1 |
| O=C(O)c1cc2c([nH]1)CCC2CC(F)(F)F (centres unmarked) [Compound 38, 4-(2,2,2-trifluoroethyl)-1,4,5,6-tetrahydrocyclopenta[b]pyrrole-2-carboxylic acid] | ≤ 100 |
| NC(=O)c1cccc(CC2CCc3[nH]c(C(=O)O)cc32)c1 (centres unmarked) [Compound 77, 4-(3-carbamoylbenzyl)-1,4,5,6-tetrahydrocyclopenta[b]pyrrole-2-carboxylic acid] | ≤ 1 |
| O=C(O)c1cc2c([nH]1)C(c1ccc(-c3ccccc3)cc1)CC2 (single isomer, unassigned) [Compound 119, 6-(biphenyl-4-yl)-1,4,5,6-tetrahydrocyclopenta[b]pyrrole-2-carboxylic acid] | ≤ 1 |
| O=C(O)c1cc2c([nH]1)CC(F)(F)C2 [Compound 21, 5,5-difluoro-1,4,5,6-tetrahydrocyclopenta[b]pyrrole-2-carboxylic acid] | ≤ 1 |
| O=C(O)c1cc2c([nH]1)CCC2Cc1ccc2ccccc2c1 (single isomer, unassigned) [Compound 79, 4-(naphthalen-2-ylmethyl)-1,4,5,6-tetrahydrocyclopenta[b]pyrrole-2-carboxylic acid] | ≤ 1 |

| Compound | IC50 [µM] |
| --- | --- |
| O=C(O)c1cc2c([nH]1)CCC2c1cccc(F)c1 (single isomer, unassigned) [Compound 95, 4-(3-fluorophenyl)-1,4,5,6-tetrahydrocyclopenta[b]pyrrole-2-carboxylic acid] | ≤ 100 |
| O=C(O)c1cc2c([nH]1)CCC2CCCc1ccccc1 (centres unmarked) [Compound 36, 4-(3-phenylpropyl)-1,4,5,6-tetrahydrocyclopenta[b]pyrrole-2-carboxylic acid] | ≤ 1 |
| O=C(O)c1cc2c([nH]1)CCC2c1cccc(Cl)c1 (centres unmarked) [Compound 102, 4-(3-chlorophenyl)-1,4,5,6-tetrahydrocyclopenta[b]pyrrole-2-carboxylic acid] | ≤ 0.1 |
| O=C(O)c1cc2c([nH]1)CCC2Cc1cccc(-c2ccc[nH]2)c1 (single isomer, unassigned) [Compound 92, 4-(3-(1H-pyrrol-2-yl)benzyl)-1,4,5,6-tetrahydrocyclopenta[b]pyrrole-2-carboxylic acid] | ≤ 100 |
| O=C(O)c1cc2c([nH]1)CCC2c1cc(F)cc(F)c1 (single isomer, unassigned) [Compound 99, 4-(3,5-difluorophenyl)-1,4,5,6-tetrahydrocyclopenta[b]pyrrole-2-carboxylic acid] | ≤ 100 |
| CC(=O)c1cccc(CC2CCc3[nH]c(C(=O)O)cc32)c1 (centres unmarked) [Compound 76, 4-(3-acetylbenzyl)-1,4,5,6-tetrahydrocyclopenta[b]pyrrole-2-carboxylic acid] | ≤ 1 |
| O=C(O)c1cc2c([nH]1)CCC2Cc1ccc(Cl)c(Cl)c1 (racemic) [Compound 57, 4-(3,4-dichlorobenzyl)-1,4,5,6-tetrahydrocyclopenta[b]pyrrole-2-carboxylic acid] | ≤ 0.1 |
| O=C(O)c1cc2c([nH]1)C(Cc1cccc(O)c1)CC2 (centres unmarked) [Compound 128, 6-(3-hydroxybenzyl)-1,4,5,6-tetrahydrocyclopenta[b]pyrrole-2-carboxylic acid] | ≤ 0.1 |
| O=C(O)c1cc2c([nH]1)CCC2Cc1ccc(F)c(F)c1 (racemic) [Compound 42, 4-(3,4-difluorobenzyl)-1,4,5,6-tetrahydrocyclopenta[b]pyrrole-2-carboxylic acid] | ≤ 0.1 |
| O=C(O)c1cc2c([nH]1)C(c1ccc(F)c(F)c1)CC2 (centres unmarked) [Compound 112, 6-(3,4-difluorophenyl)-1,4,5,6-tetrahydrocyclopenta[b]pyrrole-2-carboxylic acid] | ≤ 1 |
| Cc1cc(C)cc(C2CCc3[nH]c(C(=O)O)cc32)c1 (centres unmarked) [Compound 104, 4-(3,5-dimethylphenyl)-1,4,5,6-tetrahydrocyclopenta[b]pyrrole-2-carboxylic acid] | ≤ 100 |
| CCCC1CCc2cc(C(=O)O)[nH]c21 (centres unmarked) [Compound 110, 6-propyl-1,4,5,6-tetrahydrocyclopenta[b]pyrrole-2-carboxylic acid] | ≤ 1 |
| O=C(O)c1cc2c([nH]1)CCC2CCc1ccccc1 (single isomer, unassigned) [Compound 19, 4-phenethyl-1,4,5,6-tetrahydrocyclopenta[b]pyrrole-2-carboxylic acid] | ≤ 1 |
| CC(C)c1ccc(CC2CCc3[nH]c(C(=O)O)cc32)cc1 (centres unmarked) [Compound 33, 4-(4-isopropylbenzyl)-1,4,5,6-tetrahydrocyclopenta[b]pyrrole-2-carboxylic acid] | ≤ 1 |
| O=C(O)c1cc2c([nH]1)CCC2Cc1ccc(Cl)c(Cl)c1 (single isomer, unassigned) [Compound 58, 4-(3,4-dichlorobenzyl)-1,4,5,6-tetrahydrocyclopenta[b]pyrrole-2-carboxylic acid] | ≤ 100 |
| CC(C)CC1CCc2[nH]c(C(=O)O)cc21 (centres unmarked) [Compound 11, 4-isobutyl-1,4,5,6-tetrahydrocyclopenta[b]pyrrole-2-carboxylic acid] | ≤ 1 |
